Literature values, collected in patent US20110189689A1, “RIBOSWITCHES” (priority 2008, published 2011).

Assays:
[1] = system: TPP-specific riboswitches in bacteria and plants; conditions: via interaction with TPP-specific riboswitches in bacteria and plants
[2] = system: E. col±165 thiM RNA riboswitch; conditions: non-phosphorylated form of the thiamine analog
S. cerevisiae = conditions: presumably by binding to enzymes

Structure (SMILES)	antibiotic effect [1]	affinity to the thiM RNA riboswitch [2]	growth rate of S. cerevisiae (S. cerevisiae)
Cc1ncc(C[n+]2cccc(CCOP(=O)(O)OP(=O)(O)O)c2C)c(N)n1 [PTPP, pyrithiamine pyrophosphate]	exert an antibiotic effect		
Cc1ncc(C[n+]2csc(CCO)c2C)c(=O)[nH]1 [oxythiamine]		strongly reduced affinity	can reduce the growth rate
